From patent US8673942B2, “Fused ring compounds and use thereof” (Takeda Pharmaceutical Company Limited, priority 2008, dated 2014)

How the values were obtained:
[1] = target: T1, human liver GK (GST-hLGK1) (Homo sapiens, UniProt P35557); experiment: Measurement of GK activation value; format: biochemical; conditions: GST-hLGK1 6 μg/mL, 5 mmol/L D-glucose, 50 μmol/L Mant-ATP, 60 min at 37° C.; concentration at midpoint between maximum activity value and control activity value
T1 construct: with a BamHI site added to immediately before the initiation codon; made in house; host or cells: Escherichia coli BL21 (Stratagene), plasmid pGEX6P-2/hLGK1
T1 sequence (P35557 1-464 isoform P35557-3): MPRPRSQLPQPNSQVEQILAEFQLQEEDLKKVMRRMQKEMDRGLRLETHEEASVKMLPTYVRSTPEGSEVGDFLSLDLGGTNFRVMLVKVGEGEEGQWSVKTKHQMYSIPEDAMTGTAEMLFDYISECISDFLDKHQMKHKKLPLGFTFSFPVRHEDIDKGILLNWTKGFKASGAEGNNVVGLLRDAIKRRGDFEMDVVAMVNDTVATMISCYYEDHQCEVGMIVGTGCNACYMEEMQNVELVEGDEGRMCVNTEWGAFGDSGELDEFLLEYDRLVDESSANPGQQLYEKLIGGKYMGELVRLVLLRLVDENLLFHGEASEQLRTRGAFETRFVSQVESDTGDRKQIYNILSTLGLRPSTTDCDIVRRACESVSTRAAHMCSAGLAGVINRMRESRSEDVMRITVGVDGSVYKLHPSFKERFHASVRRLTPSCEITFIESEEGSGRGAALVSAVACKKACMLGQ
Description: GK enzyme reactions were performed in 50 mmol/L HEPES pH 7.4, 200 mmol/L KCl, 5 mmol/L MgCl2, 2 mmol/L DTT, containing 50 μmol/L 2′-(or -3′)-O—(N-methylanthraniloyl)adenosine 5′-triphosphate (Mant-ATP) (Jena Bioscience GmbH), 5 mmol/L D-glucose, 5% DMSO and 6 μg/mL GST-hLGK1 obtained in Reference Example 2A in a total volume 50 μL. The reactions were performed in 384 well black plates (Nalge Nunc International K.K.). Prior to the reaction, the enzyme and test compound were incubated for 10 min at 37° C., and 25 mM D-glucose solution (10 μL) was added to start the reaction.
After the incubation for 60 min at 37° C., the reaction was quenched by adding 25 μL of a quenching solution (containing 200 mM HEPES (pH 7.4), 20 mM MgCl2, 200 mM EDTA, 0.03% Triton-X 100, 0.3% Coating 3 reagent (Caliper Life Sciences, Inc.)).
Mant-ATP (substrate, 2′- (or -3′)-O—(N-methylanthraniloyl) adenosine 5′-triphosphate) and Mant-ADP (reaction resultant product) were separated from each well after the reaction by a microchip type capillary electrophoresis apparatus 250 HTS (Caliper Life Sciences, Inc.). The reaction rate [(reaction resultant product peak height)/(reaction resultant product peak height+substrate peak height)×100(%)] was calculated from the ratio of the substrate peak height and reaction resultant product peak height obtained by fluorescence detection (excitation wavelength 355 nm, measurement wavelength 460 nm) and used as the index of GK activity.
As a control group, the reaction rate was calculated in the same manner as above without the test compounds.
The percentage obtained by dividing the reaction rate of the well added with each concentration of the test compound (test compound addition group) by the reaction rate of the control group was taken as the GK activity value, and the concentration of the test compound at the midpoint between the maximum activity value of the test compound addition group and the control group activity value is shown as EC50 value.

| Structure (SMILES) | EC50 [1] [nM] | melting point [°C] |
| --- | --- | --- |
| CC(C)Oc1cc(Oc2ccc(S(C)(=O)=O)cn2)cc2cc(C3=NCC(CC(C)(C)O)S3)[nH]c12 (single isomer, unassigned) [Example 65, 2-Methyl-1-{2-[7-(1-methylethoxy)-5-{[5-(methylsulfonyl)pyridin-2-yl]oxy}-1H-indol-2-yl]-4,5-dihydro-1,3-thiazol-5-yl}propan-2-ol] | 59 |  |
| COc1cc(Oc2ccc(S(C)(=O)=O)nc2)cc2cc(C3=NCC(CC(=O)NCC(C)(C)O)S3)[nH]c12 (single isomer, unassigned) [Example 74] | 28 | 173 to 174 |
| CS(=O)(=O)c1ccc(Oc2cc(OCc3cccc(Cl)n3)c3[nH]c(C4=NCC(CC(=O)O)S4)cc3c2)cc1 (stereo not drawn) [Example 7, (2-{7-[(6-Chloropyridin-2-yl)methoxy]-5-[4-(methylsulfonyl)phenoxy]-1H-indol-2-yl}-4,5-dihydro-1,3-thiazol-5-yl)acetic acid] | 42 | 175 to 176 |
| Cn1ccnc1COc1cc(Oc2ccc(S(C)(=O)=O)cc2)cc2cc(C3=NCC(CC(N)=O)S3)[nH]c12 (stereo not drawn) [Example 11, 2-(2-{7-[(1-Methyl-1H-imidazol-2-yl)methoxy]-5-[4-(methylsulfonyl)phenoxy]-1H-indol-2-yl}-4,5-dihydro-1,3-thiazol-5-yl)acetamide] | 52 | 130 to 131 |
| CC(CO)Oc1cc(Oc2ccc(S(C)(=O)=O)cc2)cc2cc(C3=NCC(CC(N)=O)S3)[nH]c12 (stereo not drawn) [Example 17, 2-(2-{7-(2-Hydroxy-1-methylethoxy)-5-[4-(methylsulfonyl)phenoxy]-1H-indol-2-yl}-4,5-dihydro-1,3-thiazol-5-yl)acetamide] | 48 | 137 to 142 |
| COCCNC(=O)CC1CN=C(c2cc3cc(Oc4ccc(S(C)(=O)=O)nc4)cc(OC)c3[nH]2)S1 (stereo not drawn) [Example 78, N-(2-Methoxyethyl)-2-[2-(7-methoxy-5-{[6-(methylsulfonyl)pyridin-3-yl]oxy}-1H-indol-2-yl)-4,5-dihydro-1,3-thiazol-5-yl]acetamide] | 37 | 175 to 176 |
| COc1cc(Oc2ccc(S(C)(=O)=O)nc2)cc2cc(C3=NCC(CC(=O)NC[C@H](C)O)S3)[nH]c12 (stereo partly drawn) [Example 80, N-[(2S)-2-Hydroxypropyl]-2-[2-(7-methoxy-5-{[6-(methylsulfonyl)pyridin-3-yl]oxy}-1H-indol-2-yl)-4,5-dihydro-1,3-thiazol-5-yl]acetamide] | 37 | 185 to 186 |

Other lines, results leading:

| EC50 [1] [nM] | melting point [°C] | Structure (SMILES) |
| --- | --- | --- |
| 28 | 196 to 197 | CNC(=O)CC1CN=C(c2cc3cc(Oc4ccc(S(C)(=O)=O)nc4)cc(OC)c3[nH]2)S1 (single isomer, unassigned) [Example 31, 2-[2-(7-Methoxy-5-{[6-(methylsulfonyl)pyridin-3-yl]oxy}-1H-indol-2-yl)-4,5-dihydro-1,3-thiazol-5-yl]-N-methylacetamide] |
| 17 |  | COCC(C)Oc1cc(Oc2ccc(S(C)(=O)=O)cc2)cc2cc(C3=NCC(CCO)S3)[nH]c12 (single isomer, unassigned) [Example 57, 2-(2-{7-(2-Methoxy-1-methylethoxy)-5-[4-(methylsulfonyl)phenoxy]-1H-indol-2-yl}-4,5-dihydro-1,3-thiazol-5-yl)ethanol] |
| 15 |  | COCC(C)Oc1cc(Oc2ccc(S(C)(=O)=O)cc2)cc2cc(C3=NCC(CCO)S3)[nH]c12 (single isomer, unassigned) [Example 58, 2-(2-{7-(2-Methoxy-1-methylethoxy)-5-[4-(methylsulfonyl)phenoxy]-1H-indol-2-yl}-4,5-dihydro-1,3-thiazol-5-yl)ethanol] |
| 20 |  | CCOc1cc(Oc2ccc(S(C)(=O)=O)nc2)cc2cc(C3=NCC(CC(=O)NC)S3)[nH]c12 (single isomer, unassigned) [Example 98, 2-[2-(7-Ethoxy-5-{[6-(methylsulfonyl)pyridin-3-yl]oxy}-1H-indol-2-yl)-4,5-dihydro-1,3-thiazol-5-yl]-N-methylacetamide] |
| 55 | 218 to 219 | CS(=O)(=O)c1ccc(Oc2cc(OCc3ccccc3)c3[nH]c(C4=NCC(CC(=O)O)S4)cc3c2)cc1 (stereo not drawn) [Example 3, (2-{7-(Benzyloxy)-5-[4-(methylsulfonyl)phenoxy]-1H-indol-2-yl}-4,5-dihydro-1,3-thiazol-5-yl)acetic acid] |
| 33 | 165 to 169 | CC(CO)Oc1cc(Oc2ccc(S(C)(=O)=O)cc2)cc2cc(C3=NCC(CCO)S3)[nH]c12 (stereo not drawn) [Example 16, 2-({2-[5-(2-Hydroxyethyl)-4,5-dihydro-1,3-thiazol-2-yl]-5-[4-(methylsulfonyl)phenoxy]-1H-indole-7-yl}oxy)propan-1-ol] |
| 44 | 104 to 105 | CS(=O)(=O)c1ccc(Oc2cc(OCC3CCOCC3)c3[nH]c(C4=NCC(CCO)S4)cc3c2)cc1 (stereo not drawn) [Example 19, 2-(2-{5-[4-(Methylsulfonyl)phenoxy]-7-(tetrahydro-2H-pyran-4-ylmethoxy)-1H-indol-2-yl}-4,5-dihydro-1,3-thiazol-5-yl)ethanol] |
| 35 | 206 to 207 | COc1cc(Oc2ccc(S(C)(=O)=O)nc2)cc2cc(C3=NCC(CC(=O)N(C)C)S3)[nH]c12 (stereo not drawn) [Example 79, 2-[2-(7-Methoxy-5-{[6-(methylsulfonyl)pyridin-3-yl]oxy}-1H-indol-2-yl)-4,5-dihydro-1,3-thiazol-5-yl]-N,N-dimethylacetamide] |
| 38 | 185 to 186 | COc1cc(Oc2ccc(S(C)(=O)=O)nc2)cc2cc(C3=NCC(CC(=O)NC[C@@H](C)O)S3)[nH]c12 (stereo partly drawn) [Example 81, N-[(2R)-2-Hydroxypropyl]-2-[2-(7-methoxy-5-{[6-(methylsulfonyl)pyridin-3-yl]oxy}-1H-indol-2-yl)-4,5-dihydro-1,3-thiazol-5-yl]acetamide] |
| 42 | 148 to 149 | COc1cc(Oc2ccc(S(C)(=O)=O)nc2)cc2cc(C3=NCC(CC(=O)N4CCOCC4)S3)[nH]c12 (stereo not drawn) [Example 82, 7-Methoxy-5-{[6-(methylsulfonyl)pyridin-3-yl]oxy}-2-{5-[2-(morpholin-4-yl)-2-oxoethyl]-4,5-dihydro-1,3-thiazol-2-yl}-1H-indole] |
